Laboratory results from patent publication US20150125915A1, “Method for Producing Lactic Acid” (Kao Corporation, priority 2012, published 2015).

Experiments:
Assay type in all cases: cell-based
[1] = tested on: Rhizopus oryzae NBRC 5418; experiment: Evaluation of ability to produce lactic acid-2, strain NBRC 5418; details: 0.5% (w/v) at spore germination, control of the strain without surfactant = 100
Description: (1) Spore suspensions were prepared in the same way as in Production Example 1 using Rhizopus oryzae NBRC 4707, NBRC 4785, NBRC 5384 (=JCM14625), and NBRC 5418 strains obtained from a culture collection NBRC.
(2) Mycelia were prepared from the spores of each strain under the same conditions as in Production Example 2 involving stirring at 100 rpm using 60 mL of a PDB medium non-supplemented or supplemented with 0.5% (w/v) (final concentration) of the surfactant sorbitan monolaurate (Rheodol(R) SP-L10, manufactured by Kao Corp.).
(3) The total amount of the fungus bodies obtained in (2) was inoculated to 100 mL of an inorganic culture medium under the same conditions as in Production Example 3 to grow the mycelia. […]
30 g of the prepared wet fungus bodies of each strain of the genus Rhizopus was inoculated to 100 mL of an inorganic culture medium for lactic acid production evaluation (composition: 12.5% glucose, 0.1% ammonium sulfate, 0.06% potassium dihydrogen phosphate, 0.025% magnesium sulfate heptahydrate, 0.009% zinc sulfate heptahydrate, and 6.25% calcium carbonate; all the concentrations mean % (w/v)) applied to a 500-mL Erlenmeyer flask, and then cultured at 33.5° C. with stirring at 170 rpm. The production rate of lactic acid was determined by the same procedures as in Test Example 2. […]

[2] = tested on: Rhizopus oryzae JCM14625 strain (=NBRC 5384); experiment: Evaluation of ability to produce lactic acid-3 (surfactant concentration in the spore germination medium); details: no surfactant = 100
Description: (1) 200 mL of a PDB medium non-supplemented or supplemented with 0.01, 0.05, 0.25, 0.50, 1.0, 1.5, or 2.5% (w/v) (final concentration) of sorbitan monolaurate (Rheodol(R) SP-L10, manufactured by Kao Corp.) was applied to a 500-mL baffled Erlenmeyer flask (manufactured by Asahi Glass Co., Ltd.). The Rhizopus oryzae spore suspension prepared in Production Example 1 was inoculated thereto at a dose of 1×10^3 spores/mL of the medium and then cultured at 27° C. for 3 days with stirring at 110 rpm.
(2) The cultures were filtered through a filter support and a nylon net filter of 180 μm mesh size (manufactured by EMD Millipore) sterilized in advance to recover fungus bodies onto the filter. From 2.0 to 3.0 g of the recovered fungus bodies was inoculated to 100 mL of an inorganic culture medium (composition: 10% glucose, 0.1% ammonium sulfate, 0.06% potassium dihydrogen phosphate, 0.025% magnesium sulfate heptahydrate, 0.009% zinc sulfate heptahydrate, and 5.0% calcium carbonate; all the concentrations mean % (w/v)) applied to a 500-mL Erlenmeyer flask, and then cultured at 27° C. for approximately 40 hours with stirring at 220 rpm.
(3) Control conditions in the absence of the surfactant involved culturing spores with stirring by the same procedures as in (1) using a PDB medium non-supplemented with the surfactant and then inoculating from 4 to 8 mL of the PDB seed culture medium to 100 mL of the inorganic culture medium by the same procedures as in (2), followed by culture.
(4) Subsequently, the cultures thus obtained by culture in the inorganic culture medium were filtered through a filter support and a nylon net filter of 180 μm mesh size (manufactured by EMD Millipore) sterilized in advance to recover fungus bodies onto the filter. On this filter, the fungus bodies were further washed with from 50 to 200 mL of saline to obtain fungus bodies.
30 g of the prepared wet fungus bodies of the genus Rhizopus was inoculated to 100 mL of an inorganic culture medium for lactic acid production evaluation (composition: 12.5% glucose, 0.1% ammonium sulfate, 0.06% potassium dihydrogen phosphate, 0.025% magnesium sulfate heptahydrate, 0.009% zinc sulfate heptahydrate, and 6.25% calcium carbonate; all the concentrations mean % (w/v)) and then cultured at 33.5° C. with stirring at 170 rpm. The fungus body-free supernatant of the culture medium was recovered every 1 hour from 30 minutes after the fungus body inoculation. Glucose and lactic acid were quantified by the procedures described later in Reference Example 1. A relative value of the production rate of lactic acid was determined on the basis of the calculation method described in Reference Example 2.
The concentration of lactic acid (unit: g of lactic acid/L of medium) in the supernatant sample of each culture medium was measured according to Reference Example 1 and divided by a time (unit: hr) required for change in lactic acid concentration to calculate the production rate of lactic acid per unit time (unit: g of lactic acid/L/hr). In addition, a relative value to the production rate of lactic acid under control conditions in each Production Example was determined.

[3] = tested on: fungus of the genus Rhizopus; experiment: Evaluation of ability to produce lactic acid by repetitive use of fungus body; details: 0.5% (w/v) at germination, relative to control without surfactant in the first repetition
Description: Mycelia of a fungus of the genus Rhizopus were prepared in a medium non-supplemented with or containing 0.5% (w/v) (final concentration) of the surfactant sorbitan monolaurate (Rheodol(R) SP-L10) by the same procedures as in Test Example 4(2) and then cultured by the same procedures as in Test Example 4(3). The obtained fungus bodies were recovered by the same procedures as in Test Example 5(4). Subsequently, 25 g of the wet fungus bodies was cultured for 4 hours in an inorganic culture medium for lactic acid production evaluation by the same procedures as in Test Example 5. The production rate of lactic acid was determined. The same procedures of fungus body recovery and culture were repeated, and the production rate of lactic acid was determined at each run (the number of repetitions: 3). The production rate of lactic acid at each run was calculated as a relative value to the production rate of lactic acid under the control conditions (in the absence of the surfactant) in the first repetition. The concentration of lactic acid (unit: g of lactic acid/L of medium) in the supernatant sample of each culture medium was measured according to Reference Example 1 and divided by a time (unit: hr) required for change in lactic acid concentration to calculate the production rate of lactic acid per unit time (unit: g of lactic acid/L/hr). In addition, a relative value to the production rate of lactic acid under control conditions in each Production Example was determined.

## Sorbitan monolaurate
[1]
  Production rate of lactic acid (relative value): 135 relative value
[2]; 0.01% w/v in germination medium
  Production rate of lactic acid (relative value): 119 relative value
[2]; 0.05% w/v in germination medium
  Production rate of lactic acid (relative value): 133 relative value
[2]; 0.25% w/v in germination medium
  Production rate of lactic acid (relative value): 116 relative value
[2]; 0.50% w/v in germination medium
  Production rate of lactic acid (relative value): 138 relative value
[2]; 1.00% w/v in germination medium
  Production rate of lactic acid (relative value): 140 relative value
[2]; 1.50% w/v in germination medium
  Production rate of lactic acid (relative value): 117 relative value
[2]; 2.50% w/v in germination medium
  Production rate of lactic acid (relative value): 98 relative value
[3]; repetition 1
  Production rate of lactic acid (relative value): 173 relative value
[3]; repetition 2
  Production rate of lactic acid (relative value): 170 relative value
[3]; repetition 3
  Production rate of lactic acid (relative value): 167 relative value
